The values that follow come from patent US4297279A, “Imidazoledicarboxylic acid derivative” (Ajinomoto Co., Inc., priority 1979, dated 1981).

Values after ≈ are worked out from the molar mass of the structure shown. Where a name gives a salt, the structure may show the parent alone. A value given as a limit tells only on which side of the number the result lay.

One experiment concerns Pseudomonas aeruginosa AJ 2116. Briefly: Minimum Inhibitory Concentration (MIC) against Pseudomonas aeruginosa AJ 2116 in culture.
Settings: not given
It counts as cell-based. The source says: Comparative Minimun Inhibitory Concentrations (MIC) (the minimum concentration of the compound in micrograms per milliliter required to inhibit the growth of the test organism in a culture) obtained using Pseudomonas aeruginosa AJ 2116 as the test organism, are presented in Table 2.
For `CC(=O)OCC1=C(C(=O)O)N2C(=O)[C@@H](NC(=O)[C@H](NC(=O)c3[nH]cnc3C(=O)O)c3ccccc3)C2SC1` (stereo partly drawn) [Example 3a, 7-β-[D(-)-α-(4-carboxyimidazole-5-carboxamido)phenylacetamido]cephalosporanic acid], the “MIC (minimum concentration of the compound required to inhibit the growth of the test organism in a culture)” value turned out to be 50 µg/mL.

Staying with this experiment, now noted: AJ2116, read-out: MIC (minimum concentration of the compound required to inhibit the growth of the test organism in a culture).
For the compound `CC1(C)S[C@@H]2[C@H](NC(=O)[C@H](N)c3ccccc3)C(=O)N2[C@H]1C(=O)O` [Ampicillin, reference compound], the MIC was greater than 500 µg/mL. Still for that read-out and setting: then `CC1(C)S[C@@H]2[C@H](NC(=O)C(C(=O)O)c3ccccc3)C(=O)N2[C@H]1C(=O)O` (stereo partly drawn) [Carbenicillin, reference compound], with 100 µg/mL (≈ 264 µM). Still for that read-out and setting: then `CC1(C)S[C@@H]2[C@H](NC(=O)[C@H](NC(=O)c3nc[nH]c3C(=O)O)c3ccccc3)C(=O)N2[C@H]1C(=O)O` [Example 3b, D-α-(4-carboxyimidazole-5-carboxamido)benzylpenicillin], with 12.5 µg/mL (≈ 25.6 µM); and `CC1(C)S[C@@H]2[C@H](NC(=O)[C@H](NC(=O)c3nc[nH]c3C(=O)O)c3ccc(O)cc3)C(=O)N2[C@H]1C(=O)O` [Example 3c, D-α-(4-carboximidazole-5-carboxamido)-p-hydroxybenzylpenicillin monohydrate], with 12.5 µg/mL. Still for that read-out and setting: then `CC(=O)OCC1=C(C(=O)O)N2C(=O)[C@@H](NC(=O)[C@H](NC(=O)c3nc[nH]c3C(=O)O)c3ccc(O)cc3)[C@H]2SC1` [Example 3d, 7-β-[D(-)-α-(4-carboxyimidazole-5-carboxamido)-p-hydroxyphenylacetamido]cephalosporanic acid], with 50 µg/mL (≈ 89.4 µM); and `Cn1nnnc1SCC1=C(C(=O)O)N2C(=O)[C@@H](NC(=O)[C@H](NC(=O)c3nc[nH]c3C(=O)O)c3ccccc3)[C@H]2SC1` [Example 4, 7-β-[D-(-)-α-(4-carboxyimidazole-5-carboxamido)phenylacetamido]-3-[[(1-methyl-1H-tetrazol-5-yl)thio]methyl]-3-cephem-4-carboxylic acid monohydrate], with 50 µg/mL; and `O=C([O-])C1=C(C[n+]2ccc(CCS(=O)(=O)O)cc2)CS[C@@H]2[C@H](NC(=O)[C@H](NC(=O)c3nc[nH]c3C(=O)O)c3ccccc3)C(=O)N12` [Example 5, 7-β-[D-(-)-α-(4-carboxyimidazole-5-carboxamido)phenylacetamido]-3-(4-α-sulphoethylpyridiniummethyl-3-cephem-4-carboxylic acid disodium salt trihydrate], with 12.5 µg/mL. Regarding `O=C(O)Cc1ccc[n+](CC2=C(C(=O)[O-])N3C(=O)[C@@H](NC(=O)[C@H](NC(=O)c4nc[nH]c4C(=O)O)c4ccccc4)[C@H]3SC2)c1` [Example 6, disodium salt], the MIC was found to be 12.5 µg/mL.
